Assay results: publication PMC9820828, “Anti-Melanogenesis Effects of a Cyclic Peptide Derived from Flaxseed via Inhibition of CREB Pathway” (International Journal of Molecular Sciences, 2022)

Assays:
Assay type in all cases: cell-based, mouse
B16F10 melanoma cells [1] = assay: Cell viability (MTT assay); conditions: for cell viability (MTT): B16F10 melanoma cells; for toxicity (MTT): at the concentration contained in LOMIX and at all concentrations (0–50 μM)
Experimental: Mouse-derived B16F10 melanoma cells were incubated in the DMEM medium supplemented with 10% (v/v) FBS and 1% streptomycin–penicillin solution at 37 °C and 5% CO2. Sub-culture was conducted by detaching the cells with trypsin-EDTA after reaching 90% confluence.
The effects of LOMIX and each LO compound on cell survival were determined using the MTT assay. B16F10 melanoma cells (100 μL of 1.5 × 10^5 cells/mL) were seeded in a 96-well plate with 100 μL of the testing sample [LOMIX (0–200 μg/mL) or LO (0–50 μM)]. After 2 days, MTT solution (10 μL) was added to each well, and cells were incubated for an additional 3 h in the dark. The reaction was stopped by adding 100 μL of 10% SDS complemented with 0.01 M HCl. Moreover, 5000 cells/well of B16F10 melanoma cells were incubated in 96-well plates to check the cytotoxicity of LOMIX in the presence of α-MSH. The 10 μL of MTT solution was added to the cells incubated with the LOMIX (50 and 100 μg/mL) and α-MSH (100 nM) for 0, 24, and 48 h. Subsequently, the stopping solution (100 μL) (10% SDS solution with 0.01 M HCl) was added after 3 h incubation. The absorbance was measured at 570 nm using Synergy™ HTX (Biotek Instruments Inc., Winooski, VT, USA).

B16F10 melanoma cells [2] = assay: Extracellular melanin secretion in α-MSH-stimulated cells; conditions: 48 h; for melanin (pigment) secretion: 12.5, 25 and 50 μM; for secretion of melanin: 6.25, 12.5 and 25 μM, dose-dependent
Experimental: (§1) B16F10 melanoma cells (1.5 × 10^5 cells/mL) were seeded in a 6-well plate and cultured overnight. Then, the culture media were replaced with phenol red-free media containing DMSO (vehicle) or α-MSH (melanogenesis inducer) for the identification of the color change caused by melanogenesis. The cells were treated with different concentrations of LOMIX (25, 50, and 100 μg/mL) or LO A, B (6.25, 12.5, and 25 μM), D, E, and F and G (12.5, 25, and 50 μM). Arbutin at 1 mM was used as a positive control. After 48 h of the incubation, the culture medium’s optical density was detected at 475 nm to measure the amount of extracellular melanin secretion. Meanwhile, the remaining cells were harvested with 1 mL cold PBS and lysed with a lysis buffer (50 mM Tris-HCl pH 7.5, 120 mM NaCl, 20 mM β-glycerophosphate pH 7.5, and 2% NP-40). After centrifuging at 12,000× g for 5 min., the cell pellets were dissolved in 10% DMSO in 1 M NaOH and incubated at 60 °C. The melanin contents were measured at 405 nm using a Synergy™ HTX microplate reader. All photos of melanin-secreted medium and intracellular melanin contents were collected.

TYRP-1 = assay: Real-time PCR, TYRP-1 mRNA; conditions: 0–25 μM, co-treatment with 100 nM α-MSH, 24 h, B16F10 cells
Experimental: (§2) B16F10 cells (3 × 10^5 cells/mL) stimulated by 100 nM α-MSH were treated with LOMIX (0–100 μg/mL), LO A or B (0–25 μM), or arbutin 1 mM for 24 h. The cells were lysed with 300 μL of TRI Reagent® to extract total RNA. Then, 1 μg of total RNA with Reverse Transcriptase M-MuLV (Thermo Fisher Scientific, Waltham, MA, USA) was utilized to synthesize cDNA according to the manufacturer’s instructions. Real-time PCR was conducted, as previously described.

PKA = assay: Immunoblotting, phosphorylated PKA; conditions: 0–25 μM, 100 nM α-MSH, 24 h, B16F10 cell lysates, Western blotting
Experimental: (§3) To induce melanogenesis, 3 × 10^5 B16F10 melanoma cells per mL were treated with 100 nM of α-MSH. Subsequently, 1 mM of arbutin or LO A or B (0–25 μM) was administered to the culture media for 24 h. The cells were then harvested with 1 mL of cold PBS and lysed with lysis buffer containing protease inhibitors (20 mM Tris-HCl pH 7.5, 2 mM EDTA, 20 mM NaF, 150 mM NaCl, 50 mM β-glycerol phosphate, and 2% NP-40 containing 2 μg/mL of leupeptin, pepstatin, and aprotinin). The whole cell lysates were centrifuged at 12,000× g for 5 min to purify the intracellular protein. SDS-polyacrylamide gel electrophoresis (Bio-Rad, Hercules, CA, USA) was conducted to separate the equivalent protein contents according to size. The separated proteins were transferred to polyvinylidene fluoride membranes and blocked with 3% (w/v) bovine serum albumin (BSA) solution for at least 30 min at ambient temperature. They then were incubated overnight with primary antibodies (1:2500 dilution) at 4 °C. After three 10-min washes with 0.1% (w/v) Tween-20, the membranes were probed with HRP-conjugated secondary antibodies (1:2500 dilution). The signals of each protein sample were detected with enhanced chemiluminescence reagents.

MITF [3] = assay: Immunoblotting, MITF protein; conditions: 0–25 μM, 100 nM α-MSH, 24 h, B16F10 cell lysates, Western blotting
Experimental: as §3

B16F10 melanoma cells [4] = assay: Intracellular melanin content in α-MSH-stimulated cells; conditions: for melanin synthesis (melanin contents): 6.25, 12.5 and 25 μM, α-MSH, 48 h, B16F10 cells; for suppression of the synthesis of melanin: 12.5 and 25 μM, B16F10 cell lines
Experimental: as §1

Tyrosinase = assay: Real-time PCR, Tyrosinase mRNA; conditions: 0–25 μM, co-treatment with 100 nM α-MSH, 24 h, B16F10 cells
Experimental: as §2

CREB = assay: Immunoblotting, phosphorylated CREB; conditions: 0–25 μM, 100 nM α-MSH, 24 h, B16F10 cell lysates, Western blotting
Experimental: as §3

MITF [5] = assay: Real-time PCR, MITF mRNA; conditions: 0–25 μM, co-treatment with 100 nM α-MSH, 24 h, B16F10 cells
Experimental: as §2

TYRP-2 = assay: Real-time PCR, TYRP-2 mRNA; conditions: 0–25 μM, co-treatment with 100 nM α-MSH, 24 h, B16F10 cells
Experimental: as §2

| Substance | cell viability (MTT) (B16F10 melanoma cells [1]; 50 μM, 48 h) | toxicity (MTT) (B16F10 melanoma cells [1]; B16F10 cells, 48 h) | melanin (pigment) secretion (B16F10 melanoma cells [2]) | cell viability (MTT) (B16F10 melanoma cells [1]; 25 μM, 48 h) | cell survival (MTT) (B16F10 melanoma cells [1]; 50 μM, B16F10 cells, 48 h) | toxicity (B16F10 melanoma cells [1]; 12.5 and 25 μM, B16F10 cell lines) | expression of TYRP1 at mRNA level (TYRP-1) | phosphorylation of PKA (PKA) | secretion of melanin (B16F10 melanoma cells [2]) | protein level of MITF (MITF [3]) | melanin synthesis (melanin contents) (B16F10 melanoma cells [4]) | suppression of the synthesis of melanin (B16F10 melanoma cells [4]) | expression of tyrosinase at mRNA level (Tyrosinase) | phosphorylation of CREB (CREB) | expression of MITF at mRNA level (MITF [5]) | expression of TYRP-2 at mRNA level (TYRP-2) |
| --- | --- | --- | --- | --- | --- | --- | --- | --- | --- | --- | --- | --- | --- | --- | --- | --- |
| [1–8-NαC],[1-(Rs,Ss)-MetO]-linusorb B1 [LO4] | not altered | did not show toxicity | decreased |  |  |  |  |  |  |  |  |  |  |  |  |  |
| [1–9-NαC]-linusorb B3 [LO1] |  |  |  | not altered | declined | without toxicity | effectively inhibited | suppressed | dramatically downregulated | significantly decreased | decreased | up to 90% | effectively inhibited | suppressed | effectively inhibited | suppressed |
| [1–8-NαC],[1-(Rs,Ss)-MetO]-linusorb A2 [LO3] | not altered | did not show toxicity | decreased |  |  |  |  |  |  |  |  |  |  |  |  |  |
| [1–9-NαC]-linusorb B2 [LO2] |  |  |  |  |  |  | downregulated | not PKA | dramatically downregulated | decreased levels | decreased | up to 90% | downregulated | blocked | downregulated | suppressed |
